Assay results published in the supplement of paper PMC13380429.

Key:
Settings in all cases: 72 h
Calu-3 [1] = assay: relative viability EC50 (midpoint between 100% and the lowest measured viability); higher = less toxic
Vero E6 [2] = assay: as above
U2OS [3] = assay: as above
HepG2 [4] = assay: as above
Caco-2 [5] = assay: as above
Calu-3 [6] = assay: drug sensitivity score (DSS) for viability; higher = more toxic; extreme values may be limits of the assay
Vero E6 [7] = assay: as above
U2OS [8] = assay: as above
HepG2 [9] = assay: as above
Caco-2 [10] = assay: as above
Calu-3 [11] = assay: cell viability relative to DMSO; higher = less toxic
Vero E6 [12] = assay: as above
U2OS [13] = assay: as above
HepG2 [14] = assay: as above
Caco-2 [15] = assay: as above

SMILES | relative viability EC50 (Calu-3 [1]) [µM] | relative viability EC50 (Vero E6 [2]) [µM] | relative viability EC50 (U2OS [3]) [µM] | relative viability EC50 (HepG2 [4]) [µM] | relative viability EC50 (Caco-2 [5]) [µM] | drug sensitivity score (Calu-3 [6]) | drug sensitivity score (Vero E6 [7]) | drug sensitivity score (U2OS [8]) | drug sensitivity score (HepG2 [9]) | drug sensitivity score (Caco-2 [10]) | cell viability (Calu-3 [11]; 1 nM) [%] | cell viability (Calu-3 [11]; 10 nM) [%] | cell viability (Calu-3 [11]; 100 nM) [%] | cell viability (Calu-3 [11]; 1000 nM) [%] | cell viability (Calu-3 [11]; 10000 nM) [%] | cell viability (Vero E6 [12]; 1 nM) [%] | cell viability (Vero E6 [12]; 10 nM) [%] | cell viability (Vero E6 [12]; 100 nM) [%] | cell viability (Vero E6 [12]; 1000 nM) [%] | cell viability (Vero E6 [12]; 10000 nM) [%] | cell viability (U2OS [13]; 1 nM) [%] | cell viability (U2OS [13]; 10 nM) [%] | cell viability (U2OS [13]; 100 nM) [%] | cell viability (U2OS [13]; 1000 nM) [%] | cell viability (U2OS [13]; 10000 nM) [%] | cell viability (HepG2 [14]; 1 nM) [%] | cell viability (HepG2 [14]; 10 nM) [%] | cell viability (HepG2 [14]; 100 nM) [%] | cell viability (HepG2 [14]; 1000 nM) [%] | cell viability (HepG2 [14]; 10000 nM) [%] | cell viability (Caco-2 [15]; 1 nM) [%] | cell viability (Caco-2 [15]; 10 nM) [%] | cell viability (Caco-2 [15]; 100 nM) [%] | cell viability (Caco-2 [15]; 1000 nM) [%] | cell viability (Caco-2 [15]; 10000 nM) [%]
CC(=O)S[C@@H]1CC2=CC(=O)CC[C@]2(C)[C@H]2CC[C@@]3(C)[C@@H](CC[C@@]34CCC(=O)O4)[C@H]12 [spironolactone] | > 10 | > 10 | > 10 | > 10 | > 10 | 0 | 0 | 0 | 0 | 0 | 90.7 | 95.4 | 99.1 | 94.5 | 102 | 101 | 97.2 | 97.1 | 88.7 | 102 | 92.9 | 98.6 | 97.4 | 101 | 102 | 104 | 99.7 | 110 | 107 | 107 | 95.1 | 96.7 | 100 | 99.6 | 102
COc1cc2c(CCNC(C)=O)c[nH]c2cc1Cl [6-chloromelatonin] | > 10 | > 10 | > 10 | > 10 | > 10 | 0 | 0 | 0 | 0 | 0 | 99.5 | 96.5 | 98.9 | 105 | 98.3 | 97.8 | 93.8 | 96.2 | 89.9 | 102 | 100 | 101 | 101 | 101 | 99.3 | 107 | 97.2 | 94.7 | 90.5 | 98.9 | 96 | 98.3 | 92.7 | 98.1 | 91
O=C1OC2(c3ccc(O)cc3Oc3cc(O)ccc32)c2ccccc21 [fluorescein] | > 10 | > 10 | > 10 | > 10 | > 10 | 0 | 0 | 0 | 0 | 0 | 97.5 | 101 | 101 | 93.6 | 101 | 102 | 94.6 | 106 | 107 | 101 | 99.5 | 101 | 95.2 | 97.7 | 92.5 | 97.9 | 99.1 | 108 | 94.7 | 97.7 | 108 | 116 | 117 | 120 | 98.3
CCCN(CCc1cccs1)[C@H]1CCc2c(O)cccc2C1 [rotigotine] | > 10 | > 10 | > 10 | > 10 | > 10 | 0 | 0 | 0 | 0 | 0 | 105 | 100 | 103 | 100 | 99.6 | 93.4 | 97 | 90.1 | 98.5 | 98.7 | 95 | 98 | 98.4 | 97 | 96.6 | 94.1 | 91.7 | 87 | 107 | 102 | 98.7 | 95.7 | 103 | 101 | 103
O=S(=O)(N[C@H](CO)C(C(F)(F)F)C(F)(F)F)c1ccc(Cl)s1 [begacestat] | > 10 | > 10 | > 10 | > 10 | > 10 | 0 | 0.7 | 0 | 0 | 0 | 99.4 | 102 | 108 | 104 | 96.7 | 99.6 | 101 | 105 | 95.7 | 84.6 | 100 | 94.2 | 102 | 89.7 | 93.6 | 99.1 | 106 | 88 | 96.5 | 96.6 | 118 | 102 | 99.8 | 96.1 | 109
C[C@@H]1CN(c2c(F)c(N)c3c(=O)c(C(=O)O)cn(C4CC4)c3c2F)C[C@H](C)N1 [sparfloxacin] | > 10 | > 10 | > 10 | > 10 | > 10 | 0 | 0 | 0 | 0 | 0 | 97.6 | 93 | 106 | 110 | 97.5 | 98.6 | 103 | 103 | 98.6 | 96 | 101 | 102 | 95.9 | 101 | 99 | 110 | 98.6 | 111 | 94.7 | 92.5 | 96.3 | 101 | 95.1 | 93.4 | 98
NC(=O)CN1CCCC1=O [piracetam] | > 10 | > 10 | > 10 | > 10 | > 10 | 0 | 0 | 0 | 0 | 0 | 110 | 97.7 | 112 | 109 | 97.9 | 93.3 | 98.3 | 91.7 | 93.3 | 92 | 100 | 102 | 100 | 97.7 | 102 | 92.1 | 103 | 98 | 98.5 | 105 | 102 | 91.2 | 98.7 | 96.6 | 102
